Assay results reported in patent US20160045487A1, “COMPOSITIONS AND METHODS FOR TREATING NEUROPATHY” (CHILDEREN'S MEDICAL CENTER CORPORATION, priority 2013, published 2016).

Experiments:
[1] = system: wild type mice; assay: Hot plate thermal nociception test in wild type mice; format: in vivo, mouse; conditions: cream 1.5 mM, 51° C. hotplate, P28-P42
Protocol: Thermal nociceptive responses in wild type mice treated with either control or XIB4035 (1.5 mM) containing cream were compared using the hotplate test (51° C.) beginning at four weeks of age (p28) and continued to six weeks of age (P42).
As a first test, a cream containing XIB4035 (1.5 mM) was applied directly to the hind paws of GFAP-DN-erbB4 and wild type mice twice daily for a period of 4 weeks starting prior to symptom onset (P21). Mice of both genotypes were also treated with the base cream containing no drug for control. Mice were tested for responses to a noxious thermal stimulus prior to the initiation of treatment and every 7 days for the duration of the experiment.
Transgenic mouse lines used were as previously described (Lacomis et al., Muscle Nerve 26, 173-188 (2002); Comblath et al., Current opinion in Neurology 19, 446-450 (2006)). Animals were kept in the animal facility with free access to food and water. Behavioral experiments were performed in a quiet environment at the same time of day. The hot plate test was performed using a “controlled hot-plate analgesia meter” (Columbus Instruments) heated to 54° C. Paw withdrawal latency was measured as the time required for the mouse to visibly respond to the thermal stimulus, e.g. licking paws, shaking paws, or jumping off of the plate. […]

[2] = target: T1, TrkA (Rattus norvegicus, UniProt P35739); assay: NGF-induced TrkA phosphorylation in PC12 cells; format: cell-based; conditions: 50 ng/ml NGF with 20 μM XIB4035, 10 minutes; 15, 30 or 45 minutes after
T1 construct: endogenous in cells; host or cells: PC12 (PC-12) cells
Protocol: PC12 cells were treated with 50 ng/ml of NGF with or without 20 μM XIB4035 for 10 minutes. Cell lysates were either collected immediately or after cells were incubated in growth media for additional 15, 30, or 45 minutes. Cell lysates were subjected to immunoprecipitation using anti-TrkA antibodies and analysis via phospho-tyrosine Western blot. TrkA phosphorylation is not prolonged by addition of XIB4035.
(§1) For phosphorylated Ret immunoblot experiments, cells were treated with various combinations of molecules for 10 minutes and either collected immediately or had treatment washed out and returned to control treatment media for the times indicated prior to cell collection. Lysates were collected in buffer containing: 50 mM Tris-HCL, 1% TX-100, 0.25% Deoxycholic acid, 150 mM sodium chloride, 1 mM EDTA, 0.1 mM sodium fluoride, 0.1 mM sodium pyrophosphate, 0.02 mM sodium orthovanadate, and protease inhibitors Immunoblots were blocked in 5% bovine serum albumin in tris-buffered saline+0.2% Tween 20+0.1 mM sodium fluoride, 0.1 mM sodium pyrophosphate, and 0.02 mM sodium orthovanadate and probed in blocking solution using anti-phospotyrosine (4G10) mouse monoclonal antibody (1:2000; EMD Milipore Corp., Billerica, Mass.). Secondary detection was performed in blocking solution using HRP-conjugated goat-anti-mouse antibodies (1:1000; MP Biolomedicals LLC, Solon, Ohio). […]

[3] = target: T2, GFRα1/RET (UniProt P35546+Q62997); assay: RET phosphorylation in N2A cells transfected with GFRα1; format: cell-based, rat GFRα1 in murine N2A cells
T2 construct: N2A cells (which express RET) transfected with GFRα1 or GFRα3 expression constructs; expressed in transfected cells; host or cells: Neuro2A (N2A) cells; GFRα1 plasmid was a gift from Dr. Milbrandt; RET is endogenous
Protocol: Since the original report argued that XIB4035 displaces GDNF binding to GFRα1 expressing cells (FIG. 2 in Tokugawa et al., Neurochem Int 42, 81-86 (2003).), potentially ARTN, on TH-luciferase activity and Ret phosphorylation. […] In this experiment, cells were treated with GDNF or ARTN with or without XIB4035 for 10 minutes and cell lysates were either collected immediately or treatment was washed out and replaced with growth media for 30, 60, or 120 minutes. […] Therefore, we tested cells expressing only one GFRα using either N2A cells (which express RET) transfected with GFRα1 or GFRα3 expression constructs, or B(E)2-C cells, which express only GFRα2 together with RET. […] The GFRα1 or GFRα3 transfected N2A cells were then treated with XIB4035 alone, the appropriate ligand for the expressed receptor alone, or XIB4035 and ligand in combination for 10 minutes, and collected lysates immediately after treatment or 60 minutes after washout. […] Similar results were obtained with GFRα2 and NRTN using B(E)2-C cells (FIG. 8). Thus, XIB4035 is a positive modulator of signaling by GDNF family ligands and their receptors, not an agonist for GFRα1 as previously reported.
as §1, with “Mass.).” for “Mass.). Secondary detection was performed in blocking solution using HRP-conjugated goat-anti-mouse antibodies (1:1000; MP Biolomedicals LLC, Solon, Ohio).”

[4] = system: diabetic mice (STZ model); assay: Sub-epidermal neural plexus density in papillary dermis of STZ diabetic mice; format: in vivo, mouse; conditions: cream from hyperglycemia for 16 weeks
Protocol: To examine SNP, normo-glycemic or diabetic mice (STZ model) were treated with either vehicle cream of cream containing XIB4035 from the moment they became hyperglycemic, for 16 weeks. At the end of this treatment period, the density of sub-epidermal fibers in papillary dermis was measured in papillary dermis. It was thereby identified that sub-epidermal neural plexus (SNP) density was reduced in diabetic mice not administered XIB, but was preserved in diabetic mice that had received XIB4035 treatment (FIG. 10).
Adult female C57 Bl/6J mice were made diabetic (blood glucose >15 mmol/L) by injection of STZ (90 mg/kg i.p.) on two consecutive days, with confirmation of hyperglycemia made 7 days after STZ delivery. Paw thermal response latency of the right paw was measured every two weeks from weeks 8-16 of diabetes using a modified Hargeaves test, as described

T2 sequence (Q62997 25-430 limits assumed): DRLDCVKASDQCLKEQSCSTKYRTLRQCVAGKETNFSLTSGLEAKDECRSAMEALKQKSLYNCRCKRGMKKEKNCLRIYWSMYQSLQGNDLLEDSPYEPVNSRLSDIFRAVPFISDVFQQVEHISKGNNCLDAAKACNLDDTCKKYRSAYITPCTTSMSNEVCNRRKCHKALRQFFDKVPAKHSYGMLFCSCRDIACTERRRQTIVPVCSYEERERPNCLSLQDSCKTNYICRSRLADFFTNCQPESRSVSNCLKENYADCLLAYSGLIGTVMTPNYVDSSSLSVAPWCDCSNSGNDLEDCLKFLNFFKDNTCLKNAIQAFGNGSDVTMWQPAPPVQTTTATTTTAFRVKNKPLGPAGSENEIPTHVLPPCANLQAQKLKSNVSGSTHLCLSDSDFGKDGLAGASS
T2 sequence (P35546 29-1115): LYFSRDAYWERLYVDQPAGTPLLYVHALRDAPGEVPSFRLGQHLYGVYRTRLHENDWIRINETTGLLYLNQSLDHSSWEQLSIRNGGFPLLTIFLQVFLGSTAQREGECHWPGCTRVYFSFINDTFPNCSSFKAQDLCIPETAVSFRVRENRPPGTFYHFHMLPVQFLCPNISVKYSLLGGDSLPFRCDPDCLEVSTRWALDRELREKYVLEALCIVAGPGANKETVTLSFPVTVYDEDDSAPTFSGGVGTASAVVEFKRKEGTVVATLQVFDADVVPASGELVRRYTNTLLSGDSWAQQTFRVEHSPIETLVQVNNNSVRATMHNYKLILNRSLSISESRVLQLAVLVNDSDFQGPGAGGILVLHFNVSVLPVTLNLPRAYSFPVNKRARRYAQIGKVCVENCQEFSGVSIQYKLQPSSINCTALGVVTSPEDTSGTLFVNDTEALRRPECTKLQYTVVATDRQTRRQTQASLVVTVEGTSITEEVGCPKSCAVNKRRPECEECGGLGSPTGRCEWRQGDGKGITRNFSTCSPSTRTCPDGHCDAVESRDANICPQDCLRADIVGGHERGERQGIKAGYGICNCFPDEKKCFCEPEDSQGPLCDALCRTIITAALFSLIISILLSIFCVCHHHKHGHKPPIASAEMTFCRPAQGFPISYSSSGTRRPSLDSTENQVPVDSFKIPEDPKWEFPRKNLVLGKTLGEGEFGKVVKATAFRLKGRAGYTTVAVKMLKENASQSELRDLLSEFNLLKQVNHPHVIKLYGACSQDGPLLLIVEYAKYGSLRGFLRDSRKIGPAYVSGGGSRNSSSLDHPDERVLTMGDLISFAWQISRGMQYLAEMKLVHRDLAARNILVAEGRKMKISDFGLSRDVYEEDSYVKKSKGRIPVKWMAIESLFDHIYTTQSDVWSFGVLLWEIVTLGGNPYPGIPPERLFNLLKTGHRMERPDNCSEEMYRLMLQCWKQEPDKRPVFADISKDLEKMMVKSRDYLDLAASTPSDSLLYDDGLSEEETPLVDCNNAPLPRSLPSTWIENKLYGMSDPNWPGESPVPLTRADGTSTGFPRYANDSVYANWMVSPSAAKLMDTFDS
T1 sequence (P35739 33-799): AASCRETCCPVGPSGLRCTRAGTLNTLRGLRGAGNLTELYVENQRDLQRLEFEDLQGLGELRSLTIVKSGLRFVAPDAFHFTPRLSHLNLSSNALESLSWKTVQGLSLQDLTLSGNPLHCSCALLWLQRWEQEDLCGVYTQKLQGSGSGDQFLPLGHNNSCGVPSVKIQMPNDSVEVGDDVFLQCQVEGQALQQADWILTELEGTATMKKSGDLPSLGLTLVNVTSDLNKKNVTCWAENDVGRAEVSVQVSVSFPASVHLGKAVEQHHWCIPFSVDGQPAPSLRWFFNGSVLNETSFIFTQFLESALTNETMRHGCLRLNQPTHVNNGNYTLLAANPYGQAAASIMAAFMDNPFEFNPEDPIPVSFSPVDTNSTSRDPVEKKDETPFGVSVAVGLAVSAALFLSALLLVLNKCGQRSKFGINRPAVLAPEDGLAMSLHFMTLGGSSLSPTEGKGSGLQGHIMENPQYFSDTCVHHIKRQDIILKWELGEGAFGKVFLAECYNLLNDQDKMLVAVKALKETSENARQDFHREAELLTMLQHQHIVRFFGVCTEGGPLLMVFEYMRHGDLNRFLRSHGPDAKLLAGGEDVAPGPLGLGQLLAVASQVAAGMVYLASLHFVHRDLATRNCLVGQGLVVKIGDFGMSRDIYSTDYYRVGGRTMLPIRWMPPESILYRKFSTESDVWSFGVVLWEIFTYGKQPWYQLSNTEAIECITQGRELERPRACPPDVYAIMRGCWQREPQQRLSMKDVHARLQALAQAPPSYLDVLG

SMILES: CCN(CC)CCCC(C)Nc1cc(/C=C/c2ccccc2Cl)nc2cc(Cl)ccc12 (centres unmarked) [XIB4035, N4-{7-chloro-2-[(E)-2-(2-chloro-phenyl)-vinyl]-quinolin-4-yl}-N1,N1-diethyl-pentane-1,4-diamine]
- thermal hyperalgesia [1]: did not induce thermal hyperalgesia
- NGF-induced TrkA phosphorylation [2]: not prolonged
- induction of RET phosphorylation ([3]; XIB4035 alone, 10 minutes): did not induce RET phosphorylation
- RET phosphorylation at the 60 min time-point compared to ligand alone ([3]; XIB4035 and ligand co-treatment, 60 minutes after washout): clearly prolonged
- sub-epidermal neural plexus (SNP) density [4]: preserved
